The values that follow come from US8722849B2, “Polypeptides” (Novo Nordisk A/S, priority 2011, dated 2014).

Broadly, the EC50 is the concentration needed to bring the measured effect to its halfway point. As a reminder, the solubility is the concentration that dissolves in the medium under given conditions.

The target in data set [1] is T1, human amylin receptor (amylin 3(a) receptor: human calcitonin receptor + RAMP-3) (Homo sapiens, UniProt O60896+P30988).
T1 construct: expressed in transfected cells; host or cells: BHK570
T1 sequence (P30988 25-474): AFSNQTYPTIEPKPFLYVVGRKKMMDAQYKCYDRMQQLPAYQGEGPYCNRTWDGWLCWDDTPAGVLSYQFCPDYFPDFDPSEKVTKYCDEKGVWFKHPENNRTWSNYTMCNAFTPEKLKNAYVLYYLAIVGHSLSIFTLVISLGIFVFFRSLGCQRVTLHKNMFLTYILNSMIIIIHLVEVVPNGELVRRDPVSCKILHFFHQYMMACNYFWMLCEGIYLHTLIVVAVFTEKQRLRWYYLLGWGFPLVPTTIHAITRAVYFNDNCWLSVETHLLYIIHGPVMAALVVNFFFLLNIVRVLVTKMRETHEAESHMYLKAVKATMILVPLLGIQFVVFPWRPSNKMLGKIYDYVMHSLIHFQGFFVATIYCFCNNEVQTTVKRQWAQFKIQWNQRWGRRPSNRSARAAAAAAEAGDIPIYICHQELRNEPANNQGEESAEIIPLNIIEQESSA
T1 sequence (O60896 24-148 partner): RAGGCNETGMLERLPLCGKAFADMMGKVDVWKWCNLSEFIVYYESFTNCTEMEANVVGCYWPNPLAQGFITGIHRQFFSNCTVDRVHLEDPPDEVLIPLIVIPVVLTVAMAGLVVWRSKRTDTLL
Put plainly: Assay (II)a functional CRE-luciferase assay, human amylin receptor. Type of data set: cell-based. As to conditions: Table 2; BHK amylin 3(a)-receptor/CRE-luc cells.

In data set [2] the target is T2, human calcitonin receptor (Homo sapiens, UniProt P30988).
T2 construct: expressed in transfected cells; host or cells: BHK570
T2 sequence (P30988 25-474): T1 sequence (P30988 25-474)
As to the kind of experiment: Assay (II)a functional CRE-luciferase assay, human calcitonin receptor. Format: cell-based. To be noted: Table 7; human calcitonin (CTa) receptor.

For data set [3], the target named is T3, rat amylin 3(a) receptor (rat calcitonin(a) receptor + rat RAMP3) (Rattus norvegicus, UniProt P32214+Q9JJ73).
T3 construct: expressed in transfected cells; host or cells: BHK tk'ts 13
T3 sequence (P32214 25-479 isoform P32214-2 limits assumed): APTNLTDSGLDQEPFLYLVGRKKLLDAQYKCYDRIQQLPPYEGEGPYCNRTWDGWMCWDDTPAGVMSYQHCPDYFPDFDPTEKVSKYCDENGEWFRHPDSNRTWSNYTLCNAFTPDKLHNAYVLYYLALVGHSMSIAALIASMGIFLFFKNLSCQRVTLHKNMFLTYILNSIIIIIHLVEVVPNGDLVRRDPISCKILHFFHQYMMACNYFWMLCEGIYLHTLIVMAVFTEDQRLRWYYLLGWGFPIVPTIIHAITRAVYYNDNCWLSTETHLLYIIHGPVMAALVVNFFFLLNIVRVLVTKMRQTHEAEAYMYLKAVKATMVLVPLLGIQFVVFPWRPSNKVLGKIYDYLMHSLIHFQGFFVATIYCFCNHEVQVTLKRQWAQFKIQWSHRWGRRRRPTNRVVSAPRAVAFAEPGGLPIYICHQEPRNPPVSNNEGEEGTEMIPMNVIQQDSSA
T3 sequence (Q9JJ73 23-147 partner): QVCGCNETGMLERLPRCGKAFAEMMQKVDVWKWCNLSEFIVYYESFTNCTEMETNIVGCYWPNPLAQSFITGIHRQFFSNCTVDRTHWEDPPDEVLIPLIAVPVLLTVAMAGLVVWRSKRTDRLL
Put plainly: Assay (II)b functional cAMP FlashPlate assay, rat amylin receptor. Type of data set: cell-based. As to conditions: Table 11. In outline: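 BHK tk'ts 13 cells transiently transfected with rat calcitonin(a) receptor, alone or with rat RAMP3 (amylin 3(a)), were stimulated 24 hours later with sample for 30 min in buffer containing IBMX. cAMP measured by competitive radioactive FlashPlate assay, scintillation read after 3 h detection incubation.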

Data set [4] is described as follows: Assay (IV) determination of solubility. Type of data set: physicochemical. In outline: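 Polypeptide in water (~500 nmol/ml stock) was mixed 1:1 with 100 mM buffers from pH 3.0 to 8.0 (glycylglycine pH 3.0–5.0; bistrispropane pH 6.0–8.0). After 18 hours at room temperature, samples were centrifuged and the polypeptide remaining in solution was quantified by HPLC.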

The mark [5] stands for this setting: bistrispropane buffer, pH 6, pH 6.0, read-out: Solubility pH 6.0.
The mark [6] stands for this setting: bistrispropane buffer, pH 6.5, pH 6.5, read-out: Solubility pH 6.5.
Where [7] appears, read: bistrispropane buffer, pH 7, pH 7.0, 18 hours at room temperature, Table 3, read-out: Solubility pH 7.0.
Setting [8] is: bistrispropane buffer, pH 7, pH 7.0, read-out: Solubility pH 7.0.
The mark [9] stands for this setting: bistrispropane buffer, pH 7.5, pH 7.5, read-out: Solubility pH 7.5.
Setting [10] is: bistrispropane buffer, pH 8, pH 8.0, read-out: Solubility pH 8.0.
[11] abbreviates: glycylglycine buffer, pH 3, pH 3.0, read-out: Solubility pH 3.0.
Setting [12] is: glycylglycine buffer, pH 4, pH 4.0, 18 hours at room temperature, Table 2, read-out: Solubility pH 4.0.
[13] abbreviates: glycylglycine buffer, pH 4, pH 4.0, read-out: Solubility pH 4.0.
Setting [14] is: glycylglycine buffer, pH 5, pH 5.0, read-out: Solubility pH 5.0.

Values after ≈ are worked out from the molar mass of the structure shown. Where two headings read alike, the source gives them in different places. Starred links: 1 amine or outer side, 2 acyl side, 3 side chain; linkers in the order of their positions; H or OH if unused. Positions of bridges follow the written chain, without caps; N, C: chain ends. Residues, ends and D or L forms follow the SMILES beside them. *: point of attachment. C20 diacid = O=C(O)CCCCCCCCCCCCCCCCCCC(=O)*; C18 diacid = O=C(O)CCCCCCCCCCCCCCCCC(=O)*; γGlu = O=C(O)[C@H](CCC(=O)[*:2])N[*:1]

Turning to `CC[C@H](C)[C@H](NC(=O)[C@@H]1CCCN1C(=O)CNC(=O)[C@H](Cc1ccccc1)NC(=O)[C@H](CC(N)=O)NC(=O)[C@H](CC(N)=O)NC(=O)[C@H](CO)NC(=O)[C@H](CO)NC(=O)[C@H](Cc1c[nH]cn1)NC(=O)[C@H](Cc1c[nH]cn1)NC(=O)[C@H](CC(C)C)NC(=O)[C@H](Cc1ccccc1)NC(=O)[C@H](CCC(=O)O)NC(=O)[C@H](C)NC(=O)[C@H](CC(C)C)NC(=O)[C@H](CCCNC(=N)N)NC(=O)[C@H](CCC(N)=O)NC(=O)[C@@H](NC(=O)[C@H](C)NC(=O)[C@@H]1CSSC[C@H](NC(=O)[C@H](Cc2c[nH]cn2)NC(=O)CC[C@H](NC(=O)CCCCCCCCCCCCCCCCC(=O)O)C(=O)O)C(=O)N[C@@H](CC(N)=O)C(=O)N[C@@H]([C@@H](C)O)C(=O)N[C@@H](C)C(=O)N[C@@H]([C@@H](C)O)C(=O)N1)[C@@H](C)O)C(=O)N[C@@H](CC(C)C)C(=O)N1CCC[C@H]1C(=O)N1CCC[C@H]1C(=O)N[C@H](C(=O)N[C@@H](CC(N)=O)C(=O)N[C@H](C(=O)NCC(=O)N[C@@H](CO)C(=O)N[C@@H](CC(N)=O)C(=O)N[C@H](C(=O)N[C@@H](Cc1ccc(O)cc1)C(N)=O)[C@@H](C)O)C(C)C)[C@@H](C)O` [Example 48, N-alpha-[(S)-4-Carboxy-4-(17-carboxyheptadecanoylamino)butyryl]-[His1,Glu14,His17]-pramlintide] ({C18 diacid-γGlu}-HCNTATCATQRLAEFLHHSSNNFGPILPPTNVGSNTY-NH2; disulfide 2-7 (inferred)), the figures for the 50% effective concentration (EC50) in data set [1], in data set [2] and in data set [3] were 42.5 pM, 112 pM and 15 pM, respectively. Also, the solubility at 18 h in data set [4] (setting [5]) is above 200 µM; in data set [4] (setting [6]), 177 µM (≈ 785 µg/mL); in data set [4] (setting [7]), above 200 µM; in data set [4] (setting [8]) it was above 200 µM; in data set [4] (setting [9]), above 200 µM; in data set [4] (setting [10]), above 200 µM. For the same compound, the solubility at 18 h in data set [4] (setting [11]), in data set [4] (setting [12]), in data set [4] (setting [13]) and in data set [4] (setting [14]) was above 200 µM each time.
With `CC[C@H](C)[C@H](NC(=O)[C@@H]1CCCN1C(=O)CNC(=O)[C@H](Cc1ccccc1)NC(=O)[C@H](CC(N)=O)NC(=O)[C@H](CC(N)=O)NC(=O)[C@H](CO)NC(=O)[C@H](CO)NC(=O)[C@H](Cc1c[nH]cn1)NC(=O)[C@H](CCCNC(=N)N)NC(=O)[C@H](CC(C)C)NC(=O)[C@H](Cc1ccccc1)NC(=O)[C@H](CCC(=O)O)NC(=O)[C@H](C)NC(=O)[C@H](CC(C)C)NC(=O)[C@H](CCCNC(=N)N)NC(=O)[C@H](CCC(N)=O)NC(=O)[C@@H](NC(=O)[C@H](C)NC(=O)[C@@H]1CSSC[C@H](NC(=O)CNC(=O)CC[C@H](NC(=O)CCCCCCCCCCCCCCCCCCC(=O)O)C(=O)O)C(=O)N[C@@H](CC(N)=O)C(=O)N[C@@H]([C@@H](C)O)C(=O)N[C@@H](C)C(=O)N[C@@H]([C@@H](C)O)C(=O)N1)[C@@H](C)O)C(=O)N[C@@H](CC(C)C)C(=O)N1CCC[C@H]1C(=O)N1CCC[C@H]1C(=O)N[C@H](C(=O)N[C@@H](CC(N)=O)C(=O)N[C@H](C(=O)NCC(=O)N[C@@H](CO)C(=O)N[C@@H](CC(N)=O)C(=O)N[C@H](C(=O)N1CCC[C@H]1C(N)=O)[C@@H](C)O)C(C)C)[C@@H](C)O` [Example 88, N-alpha-[(S)-4-Carboxy-4-(19-carboxynonadecanoylamino)butyryl]-[Gly1,Glu14,Arg17,Pro37]-pramlintide] ({C20 diacid-γGlu}-GCNTATCATQRLAEFLRHSSNNFGPILPPTNVGSNTP-NH2; disulfide 2-7 (inferred); C-terminus assumed), the results for the EC50 in data set [1], in data set [2] and in data set [3] were 36 pM, 55 pM and 300 pM, respectively. Further, the solubility at 18 h in data set [4] (setting [5]) is above 200 µM; in data set [4] (setting [6]) it was above 200 µM; in data set [4] (setting [7]) it was above 200 µM; in data set [4] (bistrispropane buffer, pH 7, pH 7.0, Table 8, read-out: Solubility pH 7.0), above 200 µM; in data set [4] (bistrispropane buffer, pH 7, pH 7.0, Table 9, read-out: Solubility pH 7.0), above 200 µM; in data set [4] (setting [8]) it was above 200 µM. Moreover, the solubility at 18 h in data set [4] (bistrispropane buffer, pH 7.5, pH 7.5, Table 9, read-out: Solubility pH 7.5) was above 200 µM; in data set [4] (setting [9]), above 200 µM; in data set [4] (setting [10]), above 200 µM; in data set [4] (setting [11]), above 200 µM; in data set [4] (setting [12]), above 200 µM; in data set [4] (setting [13]), above 200 µM. In addition, the solubility at 18 h in data set [4] (setting [14]) was above 200 µM.
